Results taken from ChEMBL document CHEMBL4665781, “Metabolomic Comparison and Assessment of Co-cultivation and a Heat-Killed Inducer Strategy in Activation of Cryptic Biosynthetic Pathways” (J Nat Prod, 2020).
Calls of active or inactive are those of the source. The rule behind the calls is not given here.

Experiments:
HCT-116 = test: Cytotoxicity against human HCT-116 cells assessed as reduction in cell viability up to 32 ug/ml after 24 hrs by alamar blue dye based assay; conditions: hct-116, 24 h
[1] = Cytotoxicity against human HTB26 cells assessed as reduction in cell viability up to 32 ug/ml after 24 hrs by alamar blue dye based assay; conditions: htb26, 24 h
MCF7 [2] = test: Cytotoxicity against human MCF7 cells assessed as reduction in cell viability up to 32 ug/ml after 24 hrs by alamar blue dye based assay; conditions: mcf7, 24 h
Vero = test: Cytotoxicity against African green monkey Vero cells assessed as reduction in cell viability up to 32 ug/ml after 24 hrs by alamar blue dye based assay; conditions: chlorocebus sabaeus
Candida albicans = test: Antimicrobial activity against Candida albicans ATCC 14035 after 22 hrs by CLSI protocol based microbroth dilution assay; assay type: functional, organism-based
Proteus vulgaris = test: Antimicrobial activity against Proteus vulgaris ATCC 12454 after 22 hrs by CLSI protocol based microbroth dilution assay; assay type: functional, organism-based
Staphylococcus warneri = test: Antimicrobial activity against Staphylococcus warneri ATCC 17917 after 22 hrs by CLSI protocol based microbroth dilution assay; assay type: functional, organism-based
Enterococcus faecium = test: Antimicrobial activity against vancomycin-resistant Enterococcus faecium EF379 after 22 hrs by CLSI protocol based microbroth dilution assay; assay type: functional, organism-based
Staphylococcus aureus = test: Antimicrobial activity against methicillin-resistant Staphylococcus aureus ATCC 33591 after 22 hrs by CLSI protocol based microbroth dilution assay; assay type: functional, organism-based
[3] = Cytotoxicity against human HTB26 cells assessed as reduction in cell viability after 24 hrs by alamar blue dye based assay; conditions: HTB26, 24 h
MCF7 [4] = test: Cytotoxicity against human MCF7 cells assessed as reduction in cell viability after 24 hrs by alamar blue dye based assay; conditions: MCF7, 24 h

| Structure (SMILES) | Activity (HCT-116) | Activity [1] | Activity (MCF7 [2]) | Activity (Vero) | Activity (Candida albicans) | Activity (Proteus vulgaris) | Activity (Staphylococcus warneri) | Activity (Enterococcus faecium) | Activity (Staphylococcus aureus) | IC50 [3] | IC50 (MCF7 [4]) |
| --- | --- | --- | --- | --- | --- | --- | --- | --- | --- | --- | --- |
| COc1cccc(C(=O)NC(N)=O)c1O | Non-Toxic | Non-Toxic | Non-Toxic | Non-Toxic | inactive | inactive | inactive | inactive | inactive | – | – |
| CCCCCCCC1=C(C)C(=O)C(=O)c2c1[nH]c1ccccc21 | – | – | – | – | inactive | inactive | inactive | inactive | inactive | 3.67 µM | 3.07 µM |
